Active and inactive are the calls of the source.
Tests used:
Type in all cases: functional
KM12 = assay: Cytotoxicity against human KM12 cells
M14 = assay: Cytotoxicity against human M14 cells
HT-29 = assay: Cytotoxicity against human HT29 cells
HCT-15 = assay: Cytotoxicity against human HCT15 cells
HL-60 = assay: Cytotoxicity against human HL60 cells
K562 = assay: Cytotoxicity against human K562 cells
RPMI-8226 = assay: Cytotoxicity against human RPMI8226 cells
LOX IMVI = assay: Cytotoxicity against human LOXIMVI cells
CCRF-CEM = assay: Cytotoxicity against human CCRF-CEM cells
HCT-116 = assay: Cytotoxicity against human HCT116 cells
COLO 205 = assay: Cytotoxicity against human COLO205 cells
HCC 2998 = assay: Cytotoxicity against human HCC2998 cells
Malme-3M = assay: Cytotoxicity against human MALME-3M cells
SR = assay: Cytotoxicity against human SR cells
SW-620 = assay: Cytotoxicity against human SW620 cells
MOLT-4 = assay: Cytotoxicity against human MOLT4 cells

Measured: Activity

C#C/C=C\[C@H](O)CCCCCCCCCCC/C=C\CCCCCCCCCCC[C@H](O)C#CC#CC#CCO
active: KM12 | M14 | HT-29 | HCT-15 | HL-60 | K562 | RPMI-8226 | LOX IMVI | CCRF-CEM | HCT-116 | COLO 205 | HCC 2998 | Malme-3M | SR | SW-620 | MOLT-4

C#C[C@H](O)/C=C/CCCCCCCCCCCC/C=C\CCCCCCCCCCCCCC[C@H](O)C#CC#CC#CCO
active: KM12 | M14 | HT-29 | HCT-15 | HL-60 | K562 | RPMI-8226 | LOX IMVI | CCRF-CEM | HCT-116 | COLO 205 | HCC 2998 | Malme-3M | SR | SW-620 | MOLT-4

C#C[C@H](O)/C=C/CCCCCCCCC/C=C\C#CCCCCCC[C@H](O)C#CC#CC#CCO
active: KM12 | M14 | HT-29 | HCT-15 | HL-60 | K562 | RPMI-8226 | LOX IMVI | CCRF-CEM | HCT-116 | COLO 205 | HCC 2998 | Malme-3M | SR | SW-620 | MOLT-4

C#CC(O)/C=C/CCCCCCCCC/C=C\C#CCCCCCCCCCC#CC#CC#CCO (configuration not stated)
active: KM12 | M14 | HT-29 | HCT-15 | HL-60 | K562 | RPMI-8226 | LOX IMVI | CCRF-CEM | HCT-116 | COLO 205 | HCC 2998 | Malme-3M | SR | SW-620 | MOLT-4

C#C[C@H](O)/C=C/CCCCCCCCCC/C=C\CCCCCCCC[C@H](O)C#CC#CC#CCO
active: KM12 | M14 | HT-29 | HCT-15 | HL-60 | K562 | RPMI-8226 | LOX IMVI | CCRF-CEM | HCT-116 | COLO 205 | HCC 2998 | Malme-3M | SR | SW-620 | MOLT-4

C#C[C@H](O)/C=C/CCCCCCCC/C=C\CCCCCCCC[C@H](O)C#CC#CC#CCO
active: KM12 | M14 | HT-29 | HCT-15 | HL-60 | K562 | RPMI-8226 | LOX IMVI | CCRF-CEM | HCT-116 | COLO 205 | HCC 2998 | Malme-3M | SR | SW-620 | MOLT-4

C#C[C@H](O)/C=C/CCCCCCCCC/C=C\C#CCCCCCCCC[C@H](O)C#CC#CC#CCO
active: KM12 | M14 | HT-29 | HCT-15 | HL-60 | K562 | RPMI-8226 | LOX IMVI | CCRF-CEM | HCT-116 | COLO 205 | HCC 2998 | Malme-3M | SR | SW-620 | MOLT-4
